Assays:
Assay type in all cases: in vivo
[1] = test system: goosegrass (Eleusine indica); assay: Test C postemergence
Excerpt: (§1) Seeds of plant species selected from bermudagrass (Cynodon dactylon), Surinam grass (Brachiaria decumbens), cocklebur (Xanthium strumarium), corn (Zea mays), crabgrass (Digitaria sanguinalis), woolly cupgrass (Eriochloa villosa), giant foxtail (Setaria faberii), goosegrass (Eleusine indica), johnsongrass (Sorghum halepense), kochia (Kochia scoparia), lambsquarters (Chenopodium album), morningglory (Ipomoea hederacea), yellow nutsedge (Cyperus esculentus), pigweed (Amaranthus retroflexus), common ragweed (Ambrosia elatior), soybean (Glycine max) and velvetleaf (Abutilon theophrasti) were planted and treated preemergence with test chemicals formulated in a non-phytotoxic solvent mixture which included a surfactant.
(§2) At the same time, plants selected from these crop and weed species and also winter barley (Hordeum vulgare), blackgrass (Alopecurus myosuroides), canary grass (Phalaris minor), chickweed (Stellaria media), downy brome (Bromus tectorum), green foxtail (Setaria viridis), Italian ryegrass (Lolium multiflorum), wheat (Triticum aestivum), wild oat (Avena fatua) and windgrass (Apera spica-venti) were treated with postemergence applications of some of the test chemicals formulated in the same manner. Plants ranged in height from 2 to 18 cm (1- to 4-leaf stage) for postemergence treatments. Plant species in the flooded paddy test consisted of rice (Oryza saliva), smallflower flatsedge (Cyperus difformis), duck salad (Heteranthera limosa) and barnyardgrass (Echinochloa crus-galli) grown to the 2-leaf stage for testing. Treated plants and controls were maintained in a greenhouse for 12 to 14 days, after which time all species were compared to controls and visually evaluated. Plant response ratings, summarized in Table C, are based on a scale of 0 to 100 where 0 is no effect and 100 is complete control. A dash (-) response means no test result.

[2] = test system: yellow nutsedge (Cyperus esculentus); assay: Test C postemergence
Excerpt: as §1, §2

[3] = test system: soybean (Glycine max); assay: Test C postemergence
Excerpt: as §1, §2

[4] = test system: bermudagrass (Cynodon dactylon); assay: Test C postemergence
Excerpt: as §1, §2

[5] = test system: morningglory (Ipomoea hederacea); assay: Test C postemergence
Excerpt: as §1, §2

[6] = test system: velvetleaf (Abutilon theophrasti); assay: Test C postemergence
Excerpt: as §1, §2

[7] = test system: corn (Zea mays); assay: Test C postemergence
Excerpt: as §1, §2

[8] = test system: kochia (Kochia scoparia); assay: Test C postemergence
Excerpt: as §1, §2

[9] = test system: lambsquarters (Chenopodium album); assay: Test C postemergence
Excerpt: as §1, §2

[10] = test system: pigweed (Amaranthus retroflexus); assay: Test C postemergence
Excerpt: as §1, §2

[11] = test system: crabgrass (Digitaria sanguinalis); assay: Test C postemergence
Excerpt: as §1, §2

[12] = test system: johnsongrass (Sorghum halepense); assay: Test C postemergence
Excerpt: as §1, §2

[13] = test system: cocklebur (Xanthium strumarium); assay: Test C postemergence
Excerpt: as §1, §2

[14] = test system: giant foxtail (Setaria faberii); assay: Test C postemergence
Excerpt: as §1, §2

[15] = test system: Sunflower; assay: Test C preemergence; details: Rate 62 g/ha, scale 0 to 100
[16] = test system: barnyardgrass (Echinochloa crus-galli); assay: Test C flooded paddy test; details: for Barnyardgrass plant response rating: Flooded Paddy, scale 0 to 100, 0 no effect, 100 complete control; for Plant response rating, Barnyardgrass: flooded paddy test, scale 0 to 100 (0 no effect, 100 complete control)
In short: (§3)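 Visual ratings (0 = no effect, 100 = complete control) were made 12–14 days after treatment, relative to greenhouse controls. Plants in the flooded paddy test were rice, smallflower flatsedge, duck salad and barnyardgrass, treated at the 2-leaf stage.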

[17] = test system: duck salad (Heteranthera limosa); assay: Test C flooded paddy test; details: for Ducksalad plant response rating: Flooded Paddy, scale 0 to 100, 0 no effect, 100 complete control; for Plant response rating, Ducksalad: flooded paddy test, scale 0 to 100 (0 no effect, 100 complete control)
In short: as §3

[18] = test system: rice (Oryza saliva); assay: Test C flooded paddy test; details: for Rice plant response rating: Flooded Paddy, scale 0 to 100, 0 no effect, 100 complete control; for Plant response rating, Rice: flooded paddy test, scale 0 to 100 (0 no effect, 100 complete control)
In short: as §3

[19] = Rate 250 g/ha, scale 0 to 100 (0 no effect, 100 complete control)
[20] = Rate 500 g/ha, scale 0 to 100 (0 no effect, 100 complete control)
[21] = Rate 125 g/ha, scale 0 to 100, 0 no effect, 100 complete control

For `COc1cc(N2CCC(n3ccc(C(C)C)n3)C2=O)ccc1Cl` (centres unmarked) [Compound 120], the “Plant response rating, Goosegrass” value ([1]; Rate 62 g/ha, scale 0 to 100) was 0, the “Plant response rating, Goosegrass” value [1, 19] was 0 and the “Plant response rating, Goosegrass” value [1, 20] was 60. For the same compound, the “Plant response rating, Nutsedge” value ([2]; Rate 62 g/ha, scale 0 to 100) was 0, the “Plant response rating, Nutsedge” value [2, 19] was 0 and the “Plant response rating, Nutsedge” value [2, 20] was 50. For the same compound, the “Plant response rating, Soybean” value ([3]; Rate 62 g/ha, scale 0 to 100) was 30, the “Plant response rating, Soybean” value [3, 19] was 60 and the “Plant response rating, Soybean” value [3, 20] was 60. For the same compound, the “Plant response rating, Bermudagrass” value ([4]; Rate 62 g/ha, scale 0 to 100) was 0, the “Plant response rating, Bermudagrass” value [4, 21] was 0 and the “Plant response rating, Bermudagrass” value [4, 19] was 0. The “Plant response rating, Bermudagrass” value [4, 20] was 70, the “Plant response rating, Morningglory” value ([5]; Rate 62 g/ha, scale 0 to 100) was 0 and the “Plant response rating, Morningglory” value [5, 19] was 90. The “Plant response rating, Morningglory” value [5, 20] was 100, the “Plant response rating, Velvetleaf” value ([6]; Rate 62 g/ha, scale 0 to 100) was 0 and the “Plant response rating, Velvetleaf” value [6, 19] was 0. The “Plant response rating, Velvetleaf” value [6, 20] was 0, the “Plant response rating, Velvetleaf” value ([6]; scale 0 to 100) was 0 and the “Plant response rating, Corn” value ([7]; Rate 62 g/ha, scale 0 to 100) was 30. The “Plant response rating, Corn” value [7, 19] was 30, the “Plant response rating, Corn” value [7, 20] was 50 and the “Plant response rating, Corn” value ([7]; scale 0 to 100) was 30. The “Plant response rating, Kochia” value ([8]; Rate 62 g/ha, scale 0 to 100) was 50, the “Plant response rating, Kochia” value [8, 19] was 90 and the “Plant response rating, Kochia” value [8, 20] was 90. The “Plant response rating, Lambsquarters” value ([9]; Rate 62 g/ha, scale 0 to 100) was 50, the “Plant response rating, Lambsquarters” value [9, 19] was 90 and the “Plant response rating, Lambsquarters” value [9, 20] was 100. For the same compound, the “Plant response rating, Pigweed” value ([10]; Rate 62 g/ha, scale 0 to 100) was 0, the “Plant response rating, Pigweed” value [10, 19] was 60 and the “Plant response rating, Pigweed” value [10, 20] was 90. For the same compound, the “Plant response rating, Crabgrass” value ([11]; Rate 62 g/ha, scale 0 to 100) was 0, the “Plant response rating, Crabgrass” value [11, 19] was 40 and the “Plant response rating, Crabgrass” value [11, 20] was 90. The “Plant response rating, Johnsongrass” value ([12]; Rate 62 g/ha, scale 0 to 100) was 0, the “Plant response rating, Johnsongrass” value [12, 19] was 0 and the “Plant response rating, Johnsongrass” value [12, 20] was 0. The “Plant response rating, Johnsongrass” value ([12]; rate not given, scale 0 to 100) was 0, the “Plant response rating, Cocklebur” value ([13]; Rate 62 g/ha, scale 0 to 100) was 0 and the “Plant response rating, Cocklebur” value [13, 19] was 80. For the same compound, the “Plant response rating, Cocklebur” value [13, 20] was 90, the “Plant response rating, Foxtail, Giant” value ([14]; Rate 62 g/ha, scale 0 to 100) was 0 and the “Plant response rating, Foxtail, Giant” value [14, 19] was 0. The “Plant response rating, Foxtail, Giant” value [14, 20] was 70, the “Plant response rating, Sunflower” value [15] was 60 and the “Barnyardgrass plant response rating” value ([16]; Rate 250 g/ha) was 80. For the same compound, the “Plant response rating, Barnyardgrass” value ([16]; Rate 62 g/ha) was 20, the “Plant response rating, Barnyardgrass” value ([16]; Rate 125 g/ha) was 50 and the “Ducksalad plant response rating” value ([17]; Rate 250 g/ha) was 100. For the same compound, the “Ducksalad plant response rating” value ([17]; Rate 500 g/ha) was 100, the “Plant response rating, Ducksalad” value ([17]; Rate 62 g/ha) was 70 and the “Plant response rating, Ducksalad” value ([17]; Rate 125 g/ha) was 100. The “Rice plant response rating” value ([18]; Rate 250 g/ha) was 30, the “Rice plant response rating” value ([18]; Rate 500 g/ha) was 80 and the “Plant response rating, Rice” value ([18]; Rate 62 g/ha) was 0. For the same compound, the “Plant response rating, Rice” value ([18]; Rate 125 g/ha) was 20.
`CCCC(C)c1ccn(C2CCN(c3ccc(Cl)c(OC)c3)C2=O)n1` (centres unmarked) [Compound 121] was tested, and the “Plant response rating, Goosegrass” value ([1]; Rate 62 g/ha, scale 0 to 100) was 0, the “Plant response rating, Goosegrass” value [1, 19] was 20 and the “Plant response rating, Goosegrass” value [1, 20] was 50. For the same compound, the “Plant response rating, Nutsedge” value ([2]; Rate 62 g/ha, scale 0 to 100) was 0, the “Plant response rating, Nutsedge” value [2, 19] was 0 and the “Plant response rating, Nutsedge” value [2, 20] was 0. The “Plant response rating, Soybean” value ([3]; Rate 62 g/ha, scale 0 to 100) was 50, the “Plant response rating, Soybean” value [3, 19] was 60 and the “Plant response rating, Soybean” value [3, 20] was 70. For the same compound, the “Plant response rating, Bermudagrass” value ([4]; Rate 62 g/ha, scale 0 to 100) was 0, the “Plant response rating, Bermudagrass” value [4, 21] was 0 and the “Plant response rating, Bermudagrass” value [4, 19] was 0. The “Plant response rating, Bermudagrass” value [4, 20] was 0, the “Plant response rating, Morningglory” value ([5]; Rate 62 g/ha, scale 0 to 100) was 50 and the “Plant response rating, Morningglory” value [5, 19] was 70. For the same compound, the “Plant response rating, Morningglory” value [5, 20] was 100, the “Plant response rating, Velvetleaf” value ([6]; Rate 62 g/ha, scale 0 to 100) was 0 and the “Plant response rating, Velvetleaf” value [6, 19] was 20. The “Plant response rating, Velvetleaf” value [6, 20] was 40, the “Plant response rating, Velvetleaf” value ([6]; scale 0 to 100) was 0 and the “Plant response rating, Corn” value ([7]; Rate 62 g/ha, scale 0 to 100) was 0. For the same compound, the “Plant response rating, Corn” value [7, 19] was 0, the “Plant response rating, Corn” value [7, 20] was 40 and the “Plant response rating, Corn” value ([7]; scale 0 to 100) was 0. The “Plant response rating, Kochia” value ([8]; Rate 62 g/ha, scale 0 to 100) was 70, the “Plant response rating, Kochia” value [8, 19] was 70 and the “Plant response rating, Kochia” value [8, 20] was 90. The “Plant response rating, Lambsquarters” value ([9]; Rate 62 g/ha, scale 0 to 100) was 90, the “Plant response rating, Lambsquarters” value [9, 19] was 100 and the “Plant response rating, Lambsquarters” value [9, 20] was 100. For the same compound, the “Plant response rating, Pigweed” value ([10]; Rate 62 g/ha, scale 0 to 100) was 20, the “Plant response rating, Pigweed” value [10, 19] was 70 and the “Plant response rating, Pigweed” value [10, 20] was 90. For the same compound, the “Plant response rating, Crabgrass” value ([11]; Rate 62 g/ha, scale 0 to 100) was 0, the “Plant response rating, Crabgrass” value [11, 19] was 40 and the “Plant response rating, Crabgrass” value [11, 20] was 60. For the same compound, the “Plant response rating, Johnsongrass” value ([12]; Rate 62 g/ha, scale 0 to 100) was 0, the “Plant response rating, Johnsongrass” value [12, 19] was 0 and the “Plant response rating, Johnsongrass” value [12, 20] was 0. For the same compound, the “Plant response rating, Johnsongrass” value ([12]; rate not given, scale 0 to 100) was 0, the “Plant response rating, Cocklebur” value ([13]; Rate 62 g/ha, scale 0 to 100) was 0 and the “Plant response rating, Cocklebur” value [13, 19] was 20. For the same compound, the “Plant response rating, Cocklebur” value [13, 20] was 40, the “Plant response rating, Foxtail, Giant” value ([14]; Rate 62 g/ha, scale 0 to 100) was 0 and the “Plant response rating, Foxtail, Giant” value [14, 19] was 20. The “Plant response rating, Foxtail, Giant” value [14, 20] was 60, the “Plant response rating, Sunflower” value [15] was 10 and the “Barnyardgrass plant response rating” value ([16]; Rate 250 g/ha) was 20. For the same compound, the “Barnyardgrass plant response rating” value ([16]; Rate 500 g/ha) was 80, the “Plant response rating, Barnyardgrass” value ([16]; Rate 62 g/ha) was 0 and the “Plant response rating, Barnyardgrass” value ([16]; Rate 125 g/ha) was 20. The “Ducksalad plant response rating” value ([17]; Rate 250 g/ha) was 60, the “Ducksalad plant response rating” value ([17]; Rate 500 g/ha) was 90 and the “Plant response rating, Ducksalad” value ([17]; Rate 62 g/ha) was 0. The “Plant response rating, Ducksalad” value ([17]; Rate 125 g/ha) was 0, the “Rice plant response rating” value ([18]; Rate 250 g/ha) was 0 and the “Rice plant response rating” value ([18]; Rate 500 g/ha) was 0. The “Plant response rating, Rice” value ([18]; Rate 125 g/ha) was 0.

Source: patent US7138361B2, “Herbicidal heterocycles” (E. I. du Pont de Nemours and Company, priority 2000, dated 2006)
